From US12428433B2, “Fluorine-containing heterocyclic derivatives with macrocyclic structure and use thereof” (ScinnoHub Pharmaceutical Co., Ltd, priority 2019, dated 2025) come the findings set out here.

The target in one series is TRKa (Homo sapiens (Human), UniProt P04629). The series is described as follows: Kinase inhibitory activity (Caliper mobility shift), TRKa. The format is biochemical. Here is the method:
(§1) […] (Shanghai) Co., Ltd. was commissioned to complete the testing example. […] 3.1 A tested compound was accurately weighed and dissolved in 100% DMSO to prepare into a 10 mM solution. […] 3.2.3 A kinase solution of 2.5 times final concentration was prepared with 1×kinase buffer. […] 3.2.5 The reaction plate was shaken and mixed evenly, and then incubated at room temperature for 10 minutes. 3.2.6 Mixed solutions of ATP and kinase substrate 22 of 5 times and 3 times final concentrations were prepared with 1×kinase buffer. 3.2.7 15 μL of mixed solution of ATP and substrate of 5 times or 3 times final concentration was added. 3.2.8 The 384-well plate was centrifuged at 1,000 rpm for 30 seconds, shaken and mixed evenly, and then incubated at room temperature for corresponding time. 3.2.9 The kinase reaction was terminated. 3.2.10 A conversion rate was read by the microplate reader Caliper EZ Reader. Calculation Formula Inhibition rate %=(conversion rate % maximum-conversion rate % sample)/(conversion rate % maximum-conversion rate % minimum)×100 wherein the conversion rate % sample was: a reading number of a conversion rate of a sample; the conversion rate % minimum was: an average value of the negative control well, which represented a reading number of a conversion rate without an enzyme activity well; and the conversion rate % maximum was: an average value of a ratio of the positive control well, which represented a reading number of a conversion rate without a compound inhibition well.

The nature of series [1]: Stability test in liver microsomes, rat. The class given is in vitro ADME. The note with it: for half-life at 1 μM: 0.5 mg/mL. Here is the method:
A stability of the compound of the present application in liver microsomes of human, rat and mouse was measured.
3.1 A buffer and a liver microsome were prepared into an incubation solution according to the following table:
3.2 The following two experiments were carried out respectively: a) incubation system added with coenzyme factor NADPH: 25 μL of NADPH (10 mM) was added into an incubation solution (mainly comprising a liver microsome and a phosphate buffer), so that final concentrations of the liver microsome and the NADPH were 0.5 mg/mL and […] respectively; and b) incubation system without coenzyme factor NADPH: 25 μL of phosphate buffer (100 mM) was added into the incubation solution, so that the final concentration of the liver microsome was 0.5 mg/mL. The incubation systems above were preheated at 37° C. for 10 minutes respectively.
3.3 2.5 μL of positive control compound or a tested compound solution (100 μM) was added into the incubation systems described in “step 3.2” above respectively for reaction, and the positive control compound was verapamil (purchased from Sigma), so that a final concentration of the tested compound of the present application or the positive control compound was 1 μM. The incubation solution added with the compound was incubated in water at 37° C. in batches.
3.4 30 μL of aliquot was taken from a reaction solution after 0.5 minute, 5 minutes, 15 minutes, 30 minutes and 45 minutes respectively, and the reaction was terminated by adding 5 times volume of cold acetonitrile containing 200 nM caffeine and 100 nM tolbutamide. The aliquot was centrifuged at a gravity acceleration of 3,220 g for 40 minutes, and 100 μL of supernatant was mixed with 100 μL of ultrapure water, and then used for LC-MS/MS analysis.
A peak area was determined by an extracted ion chromatogram. A slope value k was determined by linear regression of a remaining percentage of a parent drug relative to […] an incubation time curve.
In-vitro half-life periods (t1/2) were respectively calculated and determined according to the slope value, and an average value of the in-vitro half-life periods was converted into an in-vitro intrinsic clearance rate (CLint, represented by μL/min/mg protein).

Series [2] is described as follows: In-vivo pharmacokinetic study on SD rats, intravenous and oral. The settings on record: rat, plasma; for AUC(0-t): read-out: Area under curve AUC(0-t); for Cmax: read-out: Concentration to peak Cmax; for half-life: read-out: Half-life period t1/2 (converted); for bioavailability: read-out: Bioavailability F %. As for the experimental part:
Species: SD rats, SPF level. Source: the animals were transferred from the animal repository (999M-017) of the experimental institution of Shanghai Sippe-Bk Lab Animal Co., Ltd. Quantity: 3 rats for each formulation.
2.1 An appropriate amount of test samples were accurately weighed, added to a final volume of 5% DMSO, 10% polyethylene glycol-15 hydroxystearate and 85% normal saline, and fully mixed by vortex or ultrasound to obtain 0.2 mg/mL administration solution for intravenous administration.
2.2 An appropriate amount of test samples were accurately weighed, added to a final volume of 5% DMSO, 10% polyethylene glycol-15 hydroxystearate and 85% normal saline, and fully mixed by vortex or ultrasound to obtain 0.5 mg/mL administration solution for oral and intragastric administration.
Weighing was carried out before administration, and the dosage was calculated according to the weight. Intravenous administration, or oral intragastric administration was carried out.
The blood sampling was carried out before administration and 0.083 hour, 0.25 hour, 0.5 hour, 1 hour, 2 hours, 4 hours, 6 hours, 8 hours, and 24 hours after administration.
The blood sampling was carried out through a jugular vein or other suitable modes, and about 0.20 mL of each sample was collected. Heparin sodium was used for anticoagulation, the collected blood samples were placed on ice, and plasma was centrifuged within 2 hours (the centrifugation was carried out by a centrifugal force of 6,800 g for 6 minutes at 2° C. to 8° C.). The collected plasma samples were stored in a refrigerator at −80° C. before analysis, and the remaining plasma samples after analysis were continuously stored in the refrigerator at −80° C. for temporary storage.
A plasma concentration of a test subject was detected, a plasma concentration-time curve was drawn, and BLQs were all recorded as 0. […] According to blood concentration data at different time points, the pharmacokinetic parameters such as AUC(0-t), T1/2 and Cmax were calculated by WinNonlin.

In a further series the target is TRKA(G595R) (Homo sapiens (Human), UniProt P04629, G595R). The series can be described thus: Kinase inhibitory activity (Caliper mobility shift), TRKA(G595R). The class given is biochemical. Here is the method: as §1
Chain of TRKA(G595R) (P04629 33-796 G595R): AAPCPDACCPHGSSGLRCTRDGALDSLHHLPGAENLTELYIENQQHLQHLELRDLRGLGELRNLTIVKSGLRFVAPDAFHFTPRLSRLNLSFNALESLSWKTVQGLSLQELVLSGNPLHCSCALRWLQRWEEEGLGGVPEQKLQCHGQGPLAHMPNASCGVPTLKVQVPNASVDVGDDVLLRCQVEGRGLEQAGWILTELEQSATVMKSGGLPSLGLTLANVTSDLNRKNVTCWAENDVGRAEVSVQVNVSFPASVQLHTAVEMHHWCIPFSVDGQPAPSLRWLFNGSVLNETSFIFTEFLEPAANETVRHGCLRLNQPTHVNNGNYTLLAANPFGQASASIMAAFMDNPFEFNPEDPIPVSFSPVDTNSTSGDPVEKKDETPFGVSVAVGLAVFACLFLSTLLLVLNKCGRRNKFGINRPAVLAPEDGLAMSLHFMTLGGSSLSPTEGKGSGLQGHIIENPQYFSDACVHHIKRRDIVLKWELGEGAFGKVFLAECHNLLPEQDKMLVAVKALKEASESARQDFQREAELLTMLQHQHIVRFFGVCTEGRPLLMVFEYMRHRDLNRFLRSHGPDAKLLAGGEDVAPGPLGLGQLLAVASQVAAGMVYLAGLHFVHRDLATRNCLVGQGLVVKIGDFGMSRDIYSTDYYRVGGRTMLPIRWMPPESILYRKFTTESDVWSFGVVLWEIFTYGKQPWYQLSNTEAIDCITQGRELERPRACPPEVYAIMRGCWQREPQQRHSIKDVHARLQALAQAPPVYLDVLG

Like-named read-outs stand apart in the source and are kept apart here.

Chain of TRKa (P04629 33-796): as the sequence (P04629 33-796 G595R) above, with R563G counted along it

Consider `O=C1N[C@H]2C[C@H](C2)Oc2ncc(F)cc2[C@H]2CCCN2c2ccn3ncc1c3n2` (stereo in doubt) [Positive control 1, reference compound], for which, at TRKa, the IC50 (usually the midpoint of a concentration-inhibition curve) turned out to be 390 pM. Also, in series [1], the microsomal CLint (in general, the capacity of the preparation to metabolise the compound, expressed as a volume cleared per time) at 1 μM came to 123 µL/min/mg; the half-life at 1 μM worked out at 11.3 min; the “% Remaining(45 min)” value came to 9.03%. In series [2] (IV @ 1 mg/kg), the AUC(0-t) (as a rule, exposure summed from dosing to a finite time, without extrapolation to infinity) is 605 ng·h/mL; the Cmax stood at 1160 nM; the half-life was 27 min. In series [2] (PO @ 5 mg/kg), the AUC(0-t) turned out to be 2270 ng·h/mL, the bioavailability was found to be 75.1%, the Cmax came out at 932 nM and the half-life is 40.8 min. On TRKA(G595R), the IC50 came out at 720 pM.

As to `O=C1N[C@H]2C[C@H](C2)Oc2ncc(F)cc2[C@H]2CCCN2c2nc3c1cnn3cc2F` [Example 2, ((1^3E,1^4E,2^2R,5^1S,5^3S)-1^6,3^5-difluoro-4-oxa-6-aza-1(5,3)-pyrazolo[1,5-a]pyrimidine-3(3,2)-pyridine-2(1,2)-pyrrolidine-5(1,3)-cyclobutancycloheptan-7-one], in series [1], the microsomal CLint at 1 μM amounted to 214 µL/min/mg, the half-life at 1 μM came out at 6.5 min and the “% Remaining(45 min)” value was determined as 2.37%. For the same compound, in series [2] (IV @ 1 mg/kg), the AUC(0-t) came out at 422 ng·h/mL, the Cmax came to 875 nM and the half-life was 19.8 min. Moreover, in series [2] (PO @ 5 mg/kg), the AUC(0-t) stood at 1500 ng·h/mL, the bioavailability was determined as 70.9%, the Cmax was found to be 527 nM and the half-life is 33 min.

With `C[C@H]1Nc2ccn3ncc(c3n2)C(=O)N[C@H]2C[C@H](C2)Oc2ncc(F)cc21` [Positive control 2, reference compound], the IC50 at TRKa was 430 pM. In addition, in series [1], the microsomal CLint at 1 μM came to 30 µL/min/mg, the half-life at 1 μM turned out to be 46.3 min and the “% Remaining(45 min)” value was 40.95%. In series [2] (IV @ 1 mg/kg), the AUC(0-t) was found to be 1010 ng·h/mL, the Cmax was 781 nM and the half-life was 272 min. In addition, in series [2] (PO @ 5 mg/kg), the AUC(0-t) was found to be 3350 ng·h/mL, the bioavailability came out at 66.3%, the Cmax was 633 nM and the half-life was 180 min. Moreover, on TRKA(G595R), the IC50 was 970 pM.

For the compound `C[C@H]1Nc2nc3c(cnn3cc2F)C(=O)N[C@H]2C[C@H](C2)Oc2ncc(F)cc21` [Example 3, (3^1S,3^3S,6^3E,6^4E,8R)-1^5,6^6-difluoro-8-methyl-2-oxo-4,7-diaza-6(3,5)-pyrazolo[1,5-a]pyrimidine-1(2,3)-pyridine-3(1,3)-cyclobutylcyclooctane-5-one], the IC50 on TRKa was 360 pM. Moreover, in series [1], the microsomal CLint at 1 μM is 22.8 µL/min/mg, the half-life at 1 μM came out at 60.8 min and the “% Remaining(45 min)” value is recorded as 51.22%. Also, in series [2] (IV @ 1 mg/kg), the AUC(0-t) turned out to be 1480 ng·h/mL, the Cmax turned out to be 573 nM and the half-life was 300 min. In series [2] (PO @ 5 mg/kg), the AUC(0-t) stood at 8770 ng·h/mL, the bioavailability worked out at 119%, the Cmax was 1300 nM and the half-life was 181 min. Moreover, the IC50 at TRKA(G595R) was determined as 890 pM.
